{"source": "patent US9303249B2", "about": "“High concentration α-glucosidase compositions for the treatment of Pompe disease” (Amicus Therapeutics, Inc., priority 2012, dated 2016)", "key": {"[1]": {"test": "Aggregation of 25 mg/mL Myozyme® at pH 7.4 and 37° C. (Example 10)", "assay_type": "physicochemical", "settings": "1 mM DNJ, PBS pH 7.4, 4 weeks at 37° C.", "experimental": "Aggregation was assessed after a 4 week incubation period.\nA liquid formulation comprising DNJ and GAA was prepared by dissolving DNJ in water to achieve a concentration of 10 mM DNJ. GAA was reconstituted in 1.8 ml water, and dialyzed overnight in phosphate buffered-saline (pH 7.4). […] of DNJ (10 mM) was then be added to 400 microliters of GAA, such that the GAA was at a concentration of 25 mg/ml.\n25 mg/mL Myozyme® was incubated with or without 1 mM DNJ in phosphate-buffered saline at pH 7.4. Aggregation of Myozyme® was assessed after incubation for 4 weeks at 37° C."}, "[2]": {"test": "Circulating rhGAA after subcutaneous DNJ co-formulated with Myozyme® (FIG. 14)", "assay_type": "in vivo", "settings": "DNJ co-formulated with 20 mg/kg Myozyme® vs Myozyme® without DNJ"}, "[3]": {"settings": "rat, iv", "experimental": "Four groups of rats were administered one of the following dosing regimens:\n(2) 10 mg/kg of rhGAA+Water;"}, "GAA [4]": {"target": "T1, GAA (Homo sapiens, UniProt P10253)", "test": "rhGAA enzyme inactivation in whole blood at 37° C.", "assay_type": "in vitro ADME", "design": "purchased Genzyme Corp; host or cells: Chinese hamster ovary cell line", "settings": "for enzyme inactivated: whole blood 37° C., no 1-DNJ-HCl", "experimental": "Aliquots were collected at 0, 2, 4, 8 and 24 hrs and centrifuged to obtain plasma. These plasma samples were then diluted in potassium acetate buffer (pH 4.0) and assayed for GAA activity using the 4-methylumbeliferyl-α-glucose (4-MUG) fluorogenic substrate. The measured GAA activity for individual samples at each time point was normalized to the 0 hr and expressed as % of initial activity. Data from 4 independent experiments were analyzed to obtain the mean (and standard deviation) and plotted versus time to assess the loss of enzyme activity over this time course.\nAliquots were collected at 0, 3 and 6 hrs and centrifuged to obtain plasma. These plasma samples were then diluted in potassium acetate buffer (pH 4.0) and assayed for GAA activity using the 4-methylumbeliferyl-α-glucose (4-MUG) fluorogenic substrate. The measured GAA activity for individual samples at each time point was normalized to the 0 hr and expressed as % of initial activity.\nMoreover, since Myozyme® has a long plasma half-life (reported to be more than 3 hrs), there is a high probability that an appreciable amount of the enzyme remains in the circulation many hours after the infusion that would also be prone to inactivation.\nBased on human plasma PK data, these concentrations are readily obtainable in the clinic."}, "[5]": {"target": "T2, recombinant human GAA (Myozyme®) (Homo sapiens, UniProt P10253)", "T2 construct": "purchased Genzyme Corp; host or cells: Chinese hamster ovary cell line", "test": "SYPRO Orange thermal stability assay", "assay_type": "binding", "experimental": "The thermal stability assay utilizes heat to induce protein denaturation, which is monitored using a SYPRO Orange dye that fluoresces upon binding to hydrophobic amino acids (which are not exposed in a folded protein).\nDenaturation is monitored using a SYPRO Orange dye that fluoresces upon binding to hydrophobic amino acids (which are not exposed in a folded protein).\nThe thermal stability was performed at pH 7.4 for two formulations, which corresponds to the pH of the ER."}, "GAA [6]": {"target": "T1, GAA", "test": "GAA levels in cell lines derived from late-onset Pompe patients", "assay_type": "cell-based", "design": "endogenous in cells", "settings": "cell lines with IVS 1 (−13 T>G) splicing mutation"}, "GAA KO mice [7]": {"system": "GAA KO mice", "test": "Tissue glycogen reduction in GAA KO mice, Myozyme® IV with or without oral 1-DNJ-HCl (Example 9)", "assay_type": "in vivo, mouse", "experimental": "Twelve-week old male GAA KO mice were administered a single dose of Myozyme® (40 mg/kg) via bolus tail vein injection every other week for 8 weeks. To prevent anaphylaxis, before the third and fourth Myozyme® injection, diphenhydramine (10 mg/kg intraperitoneally) was administered 10 min before Myozyme® injection. […] Mice were euthanized 14 days after the last Myozyme® administration.\nGlycogen levels in heart, diaphragm, soleus, and quadriceps were then measured. […] Briefly, homogenates were prepared by homogenizing ˜50 mg tissue for 3-5 seconds on ice with a microhomogenizer in 200 μL deionized water. Supernatants were heat denatured (99° C. for 10 min) to remove endogenous amyloglucosidase activity. Denatured lysates (4 μL) were then analyzed in duplicate by addition of 36 μL water with and without 10 μL of 800 U/mL of amyloglucosidase (Sigma Aldrich, St. Louis, Mo.) and incubated for 1 hour at 50° C. The reaction was stopped by inactivation at 100° C. for 10 min. Finally, 200 μL of glucose reagent (Sigma) was added absorbance read at 340 nm on Spectramax. A standard curve ranging from 5 μg/mL to 400 μg/mL Type III rabbit liver glycogen (Sigma) was run each day for conversion of absorbance to absolute glycogen units. Simultaneously, the amount of protein was determined in tissue homogenates using the Micro BCA Protein Assay (Pierce, Rockford, Ill.) following the manufacturer's instructions. The glycogen content of each sample was normalized to protein, and data were finally expressed as micrograms of glycogen per milligram of protein (μg/mg protein)."}, "GAA KO mice [8]": {"system": "GAA KO mice", "test": "Tissue rhGAA activity after repeat IV Myozyme® in GAA KO mice", "assay_type": "in vivo, mouse", "settings": "20 mg/kg IV bolus, 4 doses at 2 week intervals, 3 days after last dose", "from_the_text": "(§1) Mice were euthanized 3 days after the last administration for tissue GAA activity measurement and 14 days after the administration for glycogen measurement. Data was compared with uptake (on day 3) and glycogen reduction (on day 14) of historical Lumizyme® IV alone study. Tissue samples included heart, diaphragm, tongue, ventral skin (non-injection site), skin from the hind limb injection site, skin from the shoulder SQ injection site, left and right limb muscles (biceps, triceps, quadriceps, soleus and gastrocnemius). GAA activities in tissues were determined using a 4-MUG fluorogenic substrate assay. Glycogen levels were determined using a glycogen assay (see Example 9 for method).\nFor both studies, the enzyme activities in tissues were assessed three days after the last (fourth) administration."}, "GAA KO mice [9]": {"system": "GAA KO mice", "test": "Tissue glycogen reduction after repeat IV Myozyme® in GAA KO mice", "assay_type": "in vivo, mouse", "settings": "20 mg/kg IV bolus, 4 administrations at two-week intervals, 14 days after last", "from_the_text": "as §1"}}, "note": "Structures can show the parent of a compound that is named as a salt."}
{"molecule": "OC[C@H]1NC[C@H](O)[C@@H](O)[C@@H]1O", "note": "[DNJ, 1-deoxynojirimycin]", "values": [{"measurement": "aggregation of Myozyme®", "setting": "[1]", "value": "reduced aggregation of Myozyme®"}, {"measurement": "circulating levels of rhGAA", "setting": "[2]", "value": "increased the circulating levels of rhGAA"}]}
{"molecule": "rhGAA: recombinant human acid α-glucosidase (e.g., Myozyme®)", "values": [{"measurement": "in vivo half life of rhGAA", "setting": "[3]", "value": "1.4 ± 0.2", "unit": "h"}, {"measurement": "enzyme inactivated", "setting": "GAA [4]; by 4 hrs", "value": "approximately 40%"}, {"measurement": "enzyme inactivated", "setting": "GAA [4]; by 8 hrs", "value": "~70", "unit": "%"}, {"measurement": "enzyme inactivated", "setting": "GAA [4]; by 24 hrs", "value": "~100", "unit": "%"}]}
{"molecule": "OC[C@H]1NC[C@H](O)[C@@H](O)[C@@H]1O", "note": "[1-DNJ-HCl, 1-deoxynojirimycin hydrochloride]", "values": [{"measurement": "thermal stability of rhGAA (heat to denature)", "setting": "[5]; 100 μM 1-DNJ-HCl, pH 7.4, vs formulation without ASSC", "value": "required significantly more heat to denature"}, {"measurement": "GAA thermostability (melting temperature)", "setting": "[5]; Myozyme® plus 1, 10, 100 μM 1-DNJ-HCl", "value": "increases GAA thermostability"}, {"measurement": "GAA levels", "setting": "GAA [6]", "value": "increased GAA levels alone and in combination with hrGAA"}, {"measurement": "loss of rhGAA activity", "setting": "GAA [4]; 2.5 μM 1-DNJ-HCl, whole blood, 6-hr time course", "value": "~20", "unit": "%"}, {"measurement": "rhGAA activity in whole blood", "setting": "GAA [4]; 50 μM 1-DNJ-HCl, 37° C., up to 24 hrs", "value": "remained completely active throughout the study"}]}
{"molecule": "Myozyme®: alglucosidase alfa, recombinant human acid α-glucosidase from Genzyme Corporation", "values": [{"measurement": "Glycogen reduction relative to untreated mice", "setting": "GAA KO mice [7]; diaphragm, same regimen", "value": "41±4", "unit": "%"}, {"measurement": "Glycogen reduction relative to untreated mice", "setting": "GAA KO mice [7]; heart, Myozyme® 40 mg/kg IV every other week for 8 weeks, +/- 30 mg/kg oral 1-DNJ-HCl", "value": "93±1", "unit": "%"}, {"measurement": "Glycogen reduction relative to untreated mice", "setting": "GAA KO mice [7]; quadriceps, same regimen", "value": "18±4", "unit": "%"}, {"measurement": "Glycogen reduction relative to untreated mice", "setting": "GAA KO mice [7]; soleus, same regimen", "value": "69±3", "unit": "%"}, {"measurement": "rhGAA activity uptake", "setting": "GAA KO mice [8]; Biceps", "value": 10.1, "unit": "nmol/mg/h"}, {"measurement": "rhGAA activity uptake", "setting": "GAA KO mice [8]; Diaphragm", "value": 7.1, "unit": "nmol/mg/h"}, {"measurement": "rhGAA activity uptake", "setting": "GAA KO mice [8]; Gastrocnemius", "value": 17.9, "unit": "nmol/mg/h"}, {"measurement": "rhGAA activity uptake", "setting": "GAA KO mice [8]; Heart", "value": 1.8, "unit": "nmol/mg/h"}, {"measurement": "rhGAA activity uptake", "setting": "GAA KO mice [8]; Quadriceps", "value": 6.9, "unit": "nmol/mg/h"}, {"measurement": "rhGAA activity uptake", "setting": "GAA KO mice [8]; Skin", "value": 27.1, "unit": "nmol/mg/h"}, {"measurement": "rhGAA activity uptake", "setting": "GAA KO mice [8]; Soleus, 20 mg/kg", "value": 8.0, "unit": "nmol/mg/h"}, {"measurement": "rhGAA activity uptake", "setting": "GAA KO mice [8]; Soleus, listed as rhGAA (Myozyme), 20 mg/kg", "value": 8, "unit": "nmol/mg/h"}, {"measurement": "rhGAA activity uptake", "setting": "GAA KO mice [8]; Tongue", "value": 12.4, "unit": "nmol/mg/h"}, {"measurement": "rhGAA activity uptake", "setting": "GAA KO mice [8]; Triceps", "value": 3.9, "unit": "nmol/mg/h"}, {"measurement": "Glycogen reduction (% of untreated)", "setting": "GAA KO mice [9]; Biceps", "value": 5, "unit": "%"}, {"measurement": "Glycogen reduction (% of untreated)", "setting": "GAA KO mice [9]; Diaphragm", "value": 19, "unit": "%"}, {"measurement": "Glycogen reduction (% of untreated)", "setting": "GAA KO mice [9]; Gastrocnemius", "value": 15, "unit": "%"}, {"measurement": "Glycogen reduction (% of untreated)", "setting": "GAA KO mice [9]; Heart", "value": 51, "unit": "%"}, {"measurement": "Glycogen reduction (% of untreated)", "setting": "GAA KO mice [9]; Quadriceps", "value": 8, "unit": "%"}, {"measurement": "Glycogen reduction (% of untreated)", "setting": "GAA KO mice [9]; Skin, 20 mg/kg", "value": "No reduction"}, {"measurement": "Glycogen reduction (% of untreated)", "setting": "GAA KO mice [9]; Skin, listed as rhGAA (Myozyme), 20 mg/kg", "value": "No"}, {"measurement": "Glycogen reduction (% of untreated)", "setting": "GAA KO mice [9]; Tongue", "value": 54, "unit": "%"}, {"measurement": "Glycogen reduction (% of untreated)", "setting": "GAA KO mice [9]; Triceps", "value": 4, "unit": "%"}]}
